{"source": "patent US9982008B2", "about": "“Preparation and uses of obeticholic acid” (Intercept Pharmaceuticals, Inc., priority 2012, dated 2018)", "key": {"[1]": {"details": "rat, in vivo, po, 20 mg/kg", "method": "The study described below was carried out to evaluate the plasma kinetics after a single oral administration and the efficiency of the intestinal absorption and the pharmacokinetics of solid non-crystalline and crystalline forms of obeticholic acid. The profiles of obeticholic acid plasma concentration vs time, the tmax, Cmax and AUC after administration of obeticholic acid Form 1 (non-crystalline) or Form F were compared (see FIGS. 37-38)\nObeticholic acid Form 1 (non-crystalline) and Form F were administered to rats and in each animal blood was collected at different period of times for at least 3 hours. Six animals were studied for each form of obeticholic acid.\nThe formulation was prepared as a suspension in water at pH 4. The study model is adult male Sprague Dawley rats about 225 to about 250 g (Harlan Laboratories). Six animals were used per dosage route. The dosage is PO 20 mg/kg/5 mL. The animals were fasted overnight before treatment with the formulation of obeticholic acid. Oral administration was performed by gastric gavage.\nOn day one animals were be fitted with a cannula implanted in the left jugular vein (SOP VIVO/SAF6), anaesthesia was obtained by Isoflurane. The experiment was started after one day of recovery from surgery. About 500 μL of blood (250 μL of plasma) was taken via cannula in a heparinised syringe (Na Heparin) and collected immediately in microtubes in an ice/water bath. Within 1 hour, samples were centrifuged at 10000×g for 5 minutes at 4° C. Plasma was immediately transferred in microtubes and stored at −20° C. Samples of blood were collected 30 minutes, 1 hour, 1.3 hour, 2 hours, and 3 hour post-dose. Plasma samples were analyzed using the HPLC-ES/MS/MS quantitative method. Pharmacokinetics study was preformed using non-compartmental methods."}, "[2]": {"details": "1 week", "method": "Briefly, the solid was suspended in water at a low pH (HCl 0.1 mol/L) and left to equilibrate at 25° C. for one week under slightly mixing. The saturate solution was filtered and the concentration of the compound in solution measured by HPLC-ES-MS/MS."}, "[3]": {"assay": "Gravimetric Vapor Sorption (GVS)", "type": "physicochemical", "protocol": "Sorption isotherms were obtained using a SMS DVS Intrinsic moisture sorption analyzer, controlled by DVS Intrinsic Control software v 1.0.0.30. The sample temperature was maintained at 25° C. by the instrument controls. The humidity was controlled by mixing streams of dry and wet nitrogen, with a total flow rate of 200 ml·min^−1. The relative humidity was measured by a calibrated Rotronic probe (dynamic range of 1.0-100% RH), located near the sample. The weight change, (mass relaxation) of the sample as a function of % RH (relative humidity) was constantly monitored by the microbalance (accuracy±0.005 mg).\n5 to 20 mg of sample was placed in a tared mesh stainless steel basket under ambient conditions. The sample was loaded and unloaded at 40% RH and 25° C. (typical room conditions). A moisture sorption isotherm was performed as outlined below (2 scans giving 1 complete cycle). The standard isotherm was performed at 25° C. at 10% RH intervals over a 0.5-90% RH range. Data analysis was undertaken in Microsoft Excel using DVS Analysis Suite v6.0.0.7. Method Parameters for SMS DVS Intrinsic Experiments are as follows:\nThe sample was recovered after completion of the isotherm and re-analyzed by XRPD.\nSorption isotherms were obtained using a SMS DVS Intrinsic moisture sorption analyzer, controlled by SMS Analysis Suite software. The sample temperature was maintained at 25° C. by the instrument controls. The humidity was controlled by mixing streams of dry and wet nitrogen, with a total flow rate of 200 ml·min^−1. The relative humidity was measured by a calibrated Rotronic probe (dynamic range of 1.0-100% RH), located near the sample. The weight change, (mass relaxation) of the sample as a function of % RH was constantly monitored by the microbalance (accuracy±0.005 mg).\nTypically 5-20 mg of sample was placed in a tared mesh stainless steel basket under ambient conditions. The sample was loaded and unloaded at 40% RH and 25° C. (typical room conditions). A moisture sorption isotherm was performed as outlined below (2 scans giving 1 complete cycle). […]"}, "[4]": {"assay": "pKa determination by potentiometry (methanol/water, Yasuda-Shedlovsky extrapolation)", "type": "physicochemical", "details": "25° C., potentiometry with methanol as cosolvent, extrapolated to 0% co-solvent (Yasuda-Shedlovsky)", "protocol": "pKa determination data were collected on a Sirius GlpKa instrument with a D-PAS attachment. Measurements were made at 25° C. in aqueous solution by UV and in methanol water mixtures by potentiometry. The titration media was ionic-strength adjusted (ISA) with 0.15 M KCl (aq). The values found in the methanol water mixtures were corrected to 0% co-solvent via a Yasuda-Shedlovsky extrapolation. The data were refined using Refinement Pro software v1.0. Prediction of pKa values was made using ACD pKa prediction software v9.\nThe pKa of obeticholic acid was measured by potentiometry using methanol as a cosolvent (FIG. 27) and extrapolated to 0% co-solvent using a Yasuda-Shedlovsky extrapolation (FIG. 28). The pKa enables determination of the proportion of the neutral and the ionized form of the compound at a given pH."}, "[5]": {"assay": "Log P determination by potentiometric titration (octanol/ISA water)", "type": "physicochemical", "details": "potentiometry", "protocol": "Data were collected by potentiometric titration on a Sirius GlpKa instrument using three ratios of octanol: ionic-strength adjusted (ISA) water to generate Log P, Log Pion, and Log D values. The data were refined using Refinement Pro software v1.0. Prediction of Log P values was made using ACD v9 and Syracuse KOWWIN v1.67 software.\nLog P was predicted using ACD software then measured by potentiometry. Three titrations were performed at three different octanol/ISA water ratios, giving the difference curve plotted in FIG. 30. The black curve is the pure aqueous pKa titration and the 3 colored curves correspond to the three octanol/ISA water ratios. The shifts in pKa enable determination of Log P.\nLog D is the distribution coefficient, representing the combined lipophilicity of all species present at a specific pH. Log P is a compound constant, which corresponds to the partition coefficient of the pure neutral species, while Log Pion is that of the pure ionized species. Log P and Log Pion can be determined from the lipophilicity curve, as the intersection of the Y axis with respectively the tangent at the start of the pH scale (when the molecule is purely in its neutral form) and the tangent at the end of the pH scale (when the molecule is completely ionized)."}}, "data": [{"compound": "CC[C@H]1[C@@H](O)[C@@H]2[C@H](CC[C@]3(C)[C@@H]([C@H](C)CCC(=O)O)CC[C@@H]23)[C@@]2(C)CC[C@@H](O)C[C@@H]12", "note": "[Form F, obeticholic acid]", "values": [{"measurement": "Plasma concentration of tauro conjugate, crystalline form compared with Form 1", "setting": "[1]", "value": "higher concentration"}, {"measurement": "Plasma obeticholic acid concentration after 3 hours relative to Cmax", "setting": "[1]", "value": "almost half of the Cmax"}, {"measurement": "Time after which Cmax is achieved", "setting": "[1]; pH 4", "value": 1.5, "unit": "h"}, {"measurement": "Water solubility", "setting": "[2]", "value": 9.1, "unit": "µM"}]}, {"compound": "obeticholic acid [Form 1]", "values": [{"measurement": "Cmax, Form 1 compared with Form F", "setting": "[1]", "value": "lower"}, {"measurement": "Time of early plasma concentration peak", "setting": "[1]", "value": 30, "unit": "min"}, {"measurement": "Time of second plasma concentration peak", "setting": "[1]", "value": 2, "unit": "h"}, {"measurement": "GVS water uptake / weight change", "setting": "[3]; 25° C., 0 to 90% RH", "value": 3.8, "unit": "%"}, {"measurement": "Hygroscopicity (GVS)", "setting": "[3]; 25° C., 0 to 90% RH, in words", "value": "moderately hygroscopic"}, {"measurement": "XRPD analysis after GVS", "setting": "[3]; sample recovered after isotherm", "value": "still non-crystalline"}, {"measurement": "Measured pKa", "setting": "[4]", "value": 4.82}, {"measurement": "Measured LogD7.4", "setting": "[5]; octanol/ISA water, pH 7.4", "value": 2.98}, {"measurement": "Measured LogPion", "setting": "[5]; octanol/ISA water, pure ionized species", "value": 1.58}, {"measurement": "Measured LogP", "setting": "[5]; three octanol/ISA water ratios", "value": 5.54}]}]}
